Results reported in PubChem BioAssay AID328 (DTP/NCI, 2004).
Several values for one entry are separate records, joined by “and”; a condition that tells them apart may be missing. Identical values can stand only once. Inconclusive results and toxic doses are left out. Starred links: 1 amine or outer side, 2 acyl side, 3 side chain; linkers in the order of their positions; H or OH if unused. Positions of bridges follow the written chain, without caps; N, C: chain ends. Non-standard residues stand in square brackets, D forms with d. Residues, ends and D or L forms follow the SMILES beside them. Chains are numbered I, II in the order given. Actinocin(1to9) = Cc1c2oc3c(C)ccc(C(=O)[*:2])c3nc-2c(C(=O)[*:1])c(N)c1=O; NMeV = CN[CH](C(=O)O)C(C)C; Sar = CNCC(=O)O

Tested on: BDF1 mice, P388 leukemia ip, median survival T/C
Experiment: NCI In Vivo Anticancer Drug Screen. Data for tumor model P388 Leukemia (intraperitoneal) in B6D2F1 (BDF1) mice
Details: endpoint: median survival time, higher = longer survival
Method in brief: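 Reported as T/C, where T is the survival measurement in dosed animals and C the same measurement in vehicle controls.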

[1] = dose: 1.0 mg/kg/injection, schedule: Q01DX009 (ip), vehicle: saline
[2] = dose: 2.0 mg/kg/injection, schedule: Q01DX009 (ip), vehicle: saline
[3] = dose: 100.0 mg/kg/injection, schedule: Q01DX009 (ip), vehicle: saline with Tween-80
[4] = dose: 200.0 mg/kg/injection, schedule: Q01DX009 (ip), vehicle: saline with Tween-80
[5] = dose: 50.0 mg/kg/injection, schedule: Q01DX009 (ip), vehicle: saline with Tween-80

## CCCCCCCCCCCCCCCCNC(=S)Nc1ccc(C(=O)O)cc1
dose: 50.0 mg/kg/injection, schedule: Q01DX001 (ip), vehicle: Klucel (hydroxypropylcellulose) (HPC)
  T/C: 113 % of control
dose: 100.0 mg/kg/injection, schedule: Q01DX001 (ip), vehicle: Klucel (hydroxypropylcellulose) (HPC)
  T/C: 109 % of control
dose: 200.0 mg/kg/injection, schedule: Q01DX001 (ip), vehicle: Klucel (hydroxypropylcellulose) (HPC)
  T/C: 100 % of control

## Cc1c(N)nc(C(CC(N)=O)NCC(N)C(N)=O)nc1C(=O)NC(C(=O)NC(C)C(O)C(C)C(=O)NC(C(=O)NCCc1nc(-c2nc(C(=O)NCCC[S+](C)C)cs2)cs1)C(C)O)C(OC1OC(CO)C(O)C(O)C1OC1OC(CO)C(O)C(OC(N)=O)C1O)c1cnc[nH]1 (centres undefined)
dose: 0.5 mg/kg/injection, schedule: Q01DX009 (ip), vehicle: saline
  T/C: 115 % of control
[1]
  T/C: 115 % of control and 116 % of control
[2]
  T/C: 120 % of control
dose: 8.0 mg/kg/injection, schedule: Q01DX009 (ip), vehicle: saline
  T/C: 163 % of control
dose: 16.0 mg/kg/injection, schedule: Q01DX009 (ip), vehicle: saline
  T/C: 90 % of control and 93 % of control and 118 % of control
dose: 32.0 mg/kg/injection, schedule: Q01DX009 (ip), vehicle: saline
  T/C: 100 % of control

## CCCCC(=O)N(c1ccc(Nc2c3ccccc3nc3cc([N+](=O)[O-])ccc23)cc1)S(C)(=O)=O
dose: 0.44 mg/kg/injection, schedule: Q01DX009 (ip), vehicle: saline with Tween-80
  T/C: 167 % of control
dose: 0.66 mg/kg/injection, schedule: Q01DX009 (ip), vehicle: saline with Tween-80
  T/C: 180 % of control
dose: 1.0 mg/kg/injection, schedule: Q01DX009 (ip), vehicle: saline with Tween-80
  T/C: 194 % of control
dose: 1.5 mg/kg/injection, schedule: Q01DX009 (ip), vehicle: saline with Tween-80
  T/C: 205 % of control
dose: 2.2 mg/kg/injection, schedule: Q04DX003 (ip), vehicle: saline with Tween-80
  T/C: 154 % of control
dose: 3.3 mg/kg/injection, schedule: Q04DX003 (ip), vehicle: saline with Tween-80
  T/C: 150 % of control
dose: 5.0 mg/kg/injection, schedule: Q04DX003 (ip), vehicle: saline with Tween-80
  T/C: 186 % of control
dose: 12.5 mg/kg/injection, schedule: Q04DX003 (ip), vehicle: saline with Tween-80
  T/C: 218 % of control
dose: 22.0 mg/kg/injection, schedule: Q04DX003 (ip), vehicle: saline with Tween-80
  T/C: 250 % of control
dose: 25.0 mg/kg/injection, schedule: Q04DX003 (ip), vehicle: saline with Tween-80
  T/C: 245 % of control
dose: 33.0 mg/kg/injection, schedule: Q04DX003 (ip), vehicle: saline with Tween-80
  T/C: 175 % of control and 209 % of control
dose: 50.0 mg/kg/injection, schedule: Q04DX003 (ip), vehicle: saline with Tween-80
  T/C: 225 % of control and 272 % of control and 181 % of control
dose: 75.0 mg/kg/injection, schedule: Q04DX003 (ip), vehicle: saline with Tween-80
  T/C: 109 % of control and 204 % of control

## COc1ccc(C(O)c2ccccc2C(=O)Nc2ccccc2)cc1 (centres undefined)
[3]
  T/C: 90 % of control
[4]
  T/C: 100 % of control

## C[C@]12CCC(=O)C=C1CC[C@@H]1[C@@H]2CC[C@@]2(C)[C@H]1CC[C@]2(C)O
dose: 100.0 mg/kg/injection, schedule: Q01DX009 (sc), vehicle: steriod suspending solution
  T/C: 104 % of control
dose: 100.0 mg/kg/injection, schedule: Q04DX003 (sc), vehicle: steriod suspending solution
  T/C: 105 % of control
dose: 200.0 mg/kg/injection, schedule: Q01DX009 (sc), vehicle: steriod suspending solution
  T/C: 95 % of control
dose: 200.0 mg/kg/injection, schedule: Q04DX003 (sc), vehicle: steriod suspending solution
  T/C: 90 % of control
dose: 400.0 mg/kg/injection, schedule: Q04DX003 (sc), vehicle: steriod suspending solution
  T/C: 115 % of control

## CCCCCCCCCCCCCCCC(=O)N(c1ccc(NC(=O)Nc2ccc(N(C(=O)CCCCCCCCCCCCCCC)C(C)CCCN(CC)CC)cc2)cc1)C(C)CCCN(CC)CC (centres undefined)
dose: 12.5 mg/kg/injection, schedule: Q01DX009 (ip), vehicle: saline with Tween-80
  T/C: 94 % of control
dose: 25.0 mg/kg/injection, schedule: Q01DX009 (ip), vehicle: saline with Tween-80
  T/C: 87 % of control
[5]
  T/C: 97 % of control
dose: 100.0 mg/kg/injection, schedule: Q04DX003 (ip), vehicle: saline with Tween-80
  T/C: 93 % of control
dose: 200.0 mg/kg/injection, schedule: Q04DX003 (ip), vehicle: saline with Tween-80
  T/C: 99 % of control
dose: 400.0 mg/kg/injection, schedule: Q04DX003 (ip), vehicle: saline with Tween-80
  T/C: 102 % of control

## Cc1ccc(C(=O)N(O)c2ccccc2)cc1
[5]
  T/C: 98 % of control
[3]
  T/C: 95 % of control
[4]
  T/C: 104 % of control

## O=C1C(N2CC2)=C(N2CCCC(O)C2)C(=O)C(N2CC2)=C1N1CCCC(O)C1 (centres undefined)
[1]
  T/C: 195 % of control
[2]
  T/C: 99 % of control

## CCC(C)C1NC(=O)C(NC(=O)c2c3nc4c(C(=O)NC5C(=O)NC(C(C)CC)C(=O)N6CCCC6C(=O)N(C)CC(=O)N(C)C(C(C)C)C(=O)OC5C)ccc(C)c4oc-3c(C)c(=O)c2N)C(C)OC(=O)C(C(C)C)N(C)C(=O)CN(C)C(=O)C2CCCN2C1=O (centres undefined) (I: TIP[Sar][NMeV] / II: TIP[Sar][NMeV]; ester I:1-I:C, II:1-II:C; linker I:N-II:N via Actinocin(1to9); configuration not given here)
dose: 0.05 mg/kg/injection, schedule: Q01DX010 (ip), vehicle: saline
  T/C: 245 % of control
dose: 0.1 mg/kg/injection, schedule: Q01DX010 (ip), vehicle: saline
  T/C: 300 % of control
dose: 0.2 mg/kg/injection, schedule: Q01DX001 (ip), vehicle: water
  T/C: 162 % of control
dose: 0.4 mg/kg/injection, schedule: Q01DX001 (ip), vehicle: water
  T/C: 157 % of control
dose: 0.8 mg/kg/injection, schedule: Q01DX001 (ip), vehicle: water
  T/C: 166 % of control
dose: 1.6 mg/kg/injection, schedule: Q01DX001 (ip), vehicle: water
  T/C: 86 % of control
dose: 3.1 micrograms/kg/injection, schedule: Q01DX001 (ip), vehicle: saline
  T/C: 113 % of control
dose: 3.1 micrograms/kg/injection, schedule: Q01DX010 (ip), vehicle: saline
  T/C: 180 % of control
dose: 3.1 micrograms/kg/injection, schedule: Q04DX003 (ip), vehicle: saline
  T/C: 109 % of control
dose: 6.2 micrograms/kg/injection, schedule: Q01DX010 (ip), vehicle: saline
  T/C: 175 % of control
dose: 6.3 micrograms/kg/injection, schedule: Q01DX001 (ip), vehicle: saline
  T/C: 118 % of control
dose: 6.3 micrograms/kg/injection, schedule: Q04DX003 (ip), vehicle: saline
  T/C: 118 % of control
dose: 12.5 micrograms/kg/injection, schedule: Q01DX001 (ip), vehicle: saline
  T/C: 122 % of control
dose: 12.5 micrograms/kg/injection, schedule: Q01DX009 (ip), vehicle: water
  T/C: 170 % of control
dose: 12.5 micrograms/kg/injection, schedule: Q01DX010 (ip), vehicle: saline
  T/C: 185 % of control
dose: 25.0 micrograms/kg/injection, schedule: Q01DX001 (ip), vehicle: saline
  T/C: 122 % of control
dose: 25.0 micrograms/kg/injection, schedule: Q01DX009 (ip), vehicle: water
  T/C: 189 % of control
dose: 25.0 micrograms/kg/injection, schedule: Q01DX010 (ip), vehicle: saline
  T/C: 220 % of control
dose: 25.0 micrograms/kg/injection, schedule: Q04DX003 (ip), vehicle: saline
  T/C: 150 % of control
dose: 50.0 micrograms/kg/injection, schedule: Q01DX009 (ip), vehicle: water
  T/C: 200 % of control
dose: 50.0 micrograms/kg/injection, schedule: Q01DX010 (ip), vehicle: saline
  T/C: 215 % of control
dose: 50.0 micrograms/kg/injection, schedule: Q04DX003 (ip), vehicle: saline
  T/C: 181 % of control
dose: 75.0 micrograms/kg/injection, schedule: Q04DX003 (ip), vehicle: water
  T/C: 162 % of control
dose: 100.0 micrograms/kg/injection, schedule: Q01DX009 (ip), vehicle: water
  T/C: 206 % of control
dose: 100.0 micrograms/kg/injection, schedule: Q01DX010 (ip), vehicle: saline
  T/C: 295 % of control
dose: 100.0 micrograms/kg/injection, schedule: Q04DX003 (ip), vehicle: saline
  T/C: 190 % of control
dose: 150.0 micrograms/kg/injection, schedule: Q04DX003 (ip), vehicle: water
  T/C: 172 % of control
dose: 200.0 micrograms/kg/injection, schedule: Q01DX001 (ip), vehicle: saline
  T/C: 177 % of control
dose: 200.0 micrograms/kg/injection, schedule: Q01DX010 (ip), vehicle: saline
  T/C: 110 % of control
dose: 200.0 micrograms/kg/injection, schedule: Q04DX003 (ip), vehicle: saline
  T/C: 200 % of control
dose: 300.0 micrograms/kg/injection, schedule: Q04DX003 (ip), vehicle: water
  T/C: 209 % of control
dose: 400.0 micrograms/kg/injection, schedule: Q01DX001 (ip), vehicle: saline
  T/C: 190 % of control
dose: 400.0 micrograms/kg/injection, schedule: Q04DX003 (ip), vehicle: saline
  T/C: 231 % of control
dose: 600.0 micrograms/kg/injection, schedule: Q04DX003 (ip), vehicle: water
  T/C: 224 % of control
